Literature values, collected in patent US5852050A, “Preparation for treating wounds or hemorrhoids” (Kaken Pharmaceutical Co., Ltd., priority 1992, dated 1998).

Tests used:
platelet aggregation = conditions: background statement; cited from earlier work
[1] = background statement; cited from earlier work

SMILES | inhibition activity of platelet aggregation (platelet aggregation) | chemical stability [1]
CCCCC[C@H](O)/C=C/[C@H]1[C@H](O)CC(=O)[C@@H]1CCCCCCC(=O)O [PGE1, prostaglandin E1] | high inhibition activity of platelet aggregation | 
CCCCC[C@H](O)/C=C/[C@@H]1[C@H]2C/C(=C/CCCC(=O)O)O[C@H]2C[C@H]1O [PGI2, Prostaglandin I2] | high inhibition activity of platelet aggregation | chemically unstable
